This note sets out measurements from patent US12465614B2, “Budesonide 21-phosphate salts and pharmaceutical compositions containing the same” (GENETIC S.P.A., priority 2020, dated 2025).

The test system of experiment [1] is mice with OVA-induced allergic asthma. Kind of experiment: Lung hyperreactivity/Penh function, intra-nasal Bud vs Bud-21 P (Experimental Groups III). In kind it is in vivo. To be noted: for Penh maximal response (Emax) / area under the Penh-metacholine concentration curve (AUC): 4 weeks. How it is done: Male Balb/c SPF mice (25*2 g, 6-week-old) were purchased from the animal house facilities at the São Paulo School of Medicine (Federal University of São Paulo, Brazil). They were group-housed in a temperature-controlled room at 22° C. with a 12/12-hour light/dark cycle and allowed free access to food and water. The study is in agreement with the Ethical Principles for Animal Research established by the Brazilian College for Animal Experimentation (COBEA). According to the internal laboratory rules, euthanasia is performed if severe distress related to the test agents developed during the experiment. In Protocol 3, the test compounds budesonide (Bud; MW: 430.53 g/mol) and budesonide 21-phosphate free acid (Bud-21 P; […] The compounds were dissolved in 10% sterile saline+90% DMSO (Sigma Chemical Co., St. Louis, MO) at the correspondent concentrations at which the above mentioned doses per animal result from the intra-nasal (i.n.) administration of 10 μl/animal (5 μl/nostril) of each of the solutions. Mice were sensitized with two subcutaneous injections of 0.4 ml of OVA/Al(OH)3, with an interval of 7 days (Sham animals received the Al(OH)3 suspension in PBS with no OVA). Seven days after the second sensitization (i.e., 3rd week), the animals were nebulized twice a week with the 1% OVA solution (Sham and untreated OVA groups were nebulized with PBS) during 20 minutes for the next 2 weeks. Sixty minutes before the challenges (OVA nebulization) and daily during the next 4 weeks, mice were intra-nasally treated (10 μl/animal as 5 μl/nostril) with the respective compounds/vehicle. Airway responsiveness in conscious, spontaneously breathing animals was measured at the end of the 4th week (i.e., after 2 weeks of OVA challenges+treatments), 24 h after the last OVA/PBS challenge via whole body plethysmography (Buxco Europe Ltd, Winchester, UK), as previously described. Experiments were carried out in a quiet room by an investigator who was unaware of the nature of treatments. Aerosolized saline (50 μl/mouse during 60 s) and then the muscarinic agonist metacholine (MCh) at increasing concentrations (3.12, 6.25, 12.5 and 25.0 mg/ml in PBS) was nebulized through an inlet of the main chamber for 3 min each to induce bronchoconstriction and readings were taken and averaged for 6 min following each nebulization. After 20 min, the baseline values usually returned at the end of this period. Enhanced pause (Penh) was measured as an indicator of bronchoconstriction and consequent increase of airway resistances: Penh=[(expiration time/relaxation time)−1][…](maximum expiration flow/maximum inspiration flow)

For experiment [2], the system named is compound 48/80 (C48/80)-induced skin edema in mice. In words: Cutaneous edema: C48/80-induced plasma extravasation, Evans blue method (Experimental Groups IV). To be noted: for C48/80-induced edema: 0.70 μmol/kg i.p. (0.30 mg/kg Bud, 0.36 mg/kg Bud 21-P); for reduction of C48/80-induced plasma extravasation: 2.32 μmol/kg i.p. (1.0 mg/kg Bud, 1.2 mg/kg Bud 21-P), 60 min before i.d. C48/80. It is filed as in vivo. The method, then:
Male C57Bl/6 SPF mice (25±2 g, 6-week-old) were purchased from the animal house facilities at the São Paulo School of Medicine (Federal University of São Paulo, Brazil). They were group-housed in a temperature-controlled room at 22° C. with a 12/12-hour light/dark cycle, had free access to food and water and were allowed to acclimate to our local facility for one week before the start of the experimental procedures. The study agrees with the Ethical Principles for Animal Research established by the Brazilian College for Animal Experimentation (COBEA). According to the internal laboratory rules, euthanasia is performed if severe distress related to the test agents developed during the experiment.
In Protocol 4, Bud (at doses of 1.0 and 0.30 mg/kg) and Bud 21-P (at doses of 1.2 and 0.36 mg/kg) were administered on a molar base, these doses were equivalent to […] μmol/kg of each compound, respectively. The vehicle for dissolution of the compounds was sterile saline solution (0.9% NaCl) containing 12.5% DMSO (Sigma Chemical Co., St. Louis, MO). The compound solutions were prepared at concentrations such that the administered dose per kg of body weight results from the intraperitoneal (i.p.) administration of 10 ml/kg of each of the solutions.
Skin edema was assessed in mice according to the method previously described by Costa et al. (2006) and Yshii et al (2009). The mice were anesthetized with urethane (25% w/v, 10 ml/kg, i.p.), had their dorsal skin shaved, and thereafter i.p. treated with the vehicle/test compounds. Fifty-five minutes later, a volume of 100 μL of Evans blue dye solution (0.25% in sterile saline) was intravenously (i.v.) injected via the tail vein. Five minutes later, the BK and C48/80 were intradermally (i.d.) injected into the dorsal skin at a fixed volume of 50 μl using a randomized scheme. The same volume of Tyrode solution 50 μl was injected as a control. Thirty minutes later, a 1 ml blood sample was obtained via cardiac puncture and the mice were killed by urethane overdose followed by cervical dislocation. The blood samples were centrifuged at 6,000 g for 4 min to obtain the plasma. […] The dye was extracted from each piece of skin and plasma (100 μl) samples using formamide, and the absorbance of the resulting solutions was measured at 620 nm. The plasma extravasation due to each agent (expressed in μl/site) was calculated as the ratio between the absorbance of each respective skin piece, corrected by the blank value and plasma sample solutions, properly adjusted by the dilution factors. To homogenate data due to the variability of different group of animals (inter-group variations), edema data are expressed as the fold-change response relative to the mean Tyrode (control) response of each experiment.

The mark [3] stands for this setting: all tested doses (3, 10 and 30 nmol/animal/day) i.n.
[4] abbreviates: highest dose 30 nmol/animal/day i.n.

SMILES strings stand for the structures.

Take `CCCC1OC2CC3C4CCC5=CC(=O)C=CC5(C)C4C(O)CC3(C)C2(C(=O)COP(=O)(O)O)O1` (stereo not drawn) [B, Budesonide 21-phosphate]: in experiment [1] (setting [3]), the “Penh maximal response (Emax)” value is reported as “significantly reduced” and the “area under the Penh-metacholine concentration curve (AUC)” value is recorded as “significantly reduced”. Also, in experiment [2], the C48/80-induced edema result is given as “significantly inhibited C48180-induced edema” and the “reduction of C48/80-induced plasma extravasation” value is recorded as “approximately 50%”.

Consider `CCCC1OC2CC3C4CCC5=CC(=O)C=CC5(C)C4C(O)CC3(C)C2(C(=O)CO)O1` (stereo not drawn) [Bud, 11β,21-dihydroxy-16α,17α-(butylidenebis(oxy))pregna-1,4-diene-3.20-dione], for which the “beneficial effect on bronchoconstriction response to methacholine (Penh function)” value in experiment [1] (3 and 10 nmol/animal/day i.n.) is “absent”. Moreover, in experiment [1] (setting [4]), the “Penh maximal response (Emax)” value is “significant reduction of this response just at the highest dose” and the “area under the Penh-metacholine concentration curve (AUC)” value was “significant reduction of this response just at the highest dose”. In addition, in experiment [2], the C48/80-induced edema entry was “ineffective” and the “reduction of C48/80-induced plasma extravasation” value is on record as “approximately 50%”.
